According to patent US12116358B2, “Substituted indoles and methods of use thereof” (EPIZYME, INC., priority 2018, dated 2024):
Like-named read-outs stand apart in the source and are kept apart here.

Tests used:
SETD2(1434-1711) = biological target: T1, SETD2(1434-1711) (Homo sapiens, UniProt Q9BYW2); assay: SETD2 (1434-1711) assay; format: biochemical; settings: read-out: SETD2 (1434-1711)
T1 construct: SETD2 (1434-1711) Assay; catalogue N/A
T1 sequence (Q9BYW2 1434-1711): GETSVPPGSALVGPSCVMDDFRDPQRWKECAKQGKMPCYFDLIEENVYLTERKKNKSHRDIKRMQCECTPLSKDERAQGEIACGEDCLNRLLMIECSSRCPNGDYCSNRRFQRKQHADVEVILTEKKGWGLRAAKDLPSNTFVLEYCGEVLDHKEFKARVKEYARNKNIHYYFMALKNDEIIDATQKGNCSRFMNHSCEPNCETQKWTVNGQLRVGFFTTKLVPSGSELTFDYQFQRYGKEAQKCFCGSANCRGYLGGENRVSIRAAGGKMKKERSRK

H3K36me3 in A549 cells = assay: In-Cell Western (ICW) assay of SETD2 inhibitors (A549 assay); format: cell-based, human; settings: A549 cells, read-out: SETD2 A549
Method in brief: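 A549 cells seeded at 4,000/well onto compound and incubated 3 days at 37° C. Methanol-fixed cells stained overnight at 4° C with anti-H3K36me3 (1:1000), then IRDye 800CW secondary with DRAQ5 DNA counterstain. Plates read by Licor imaging at 700 and 800 channels.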

IC50 (SETD2(1434-1711)) [µM]	IC50 (H3K36me3 in A549 cells; Homo sapiens) [µM]	IC50 (H3K36me3 in A549 cells) [µM]	Structure (SMILES)
11.6	15.8	–	Cc1cccc2cc(C(=O)NCCc3ccccc3N3CCOCC3)[nH]c12 [compound 511]
13.2	–	16.1	CC(=O)N[C@H]1CC[C@H](NC(=O)c2cc3c(F)ccc(C)c3[nH]2)CC1 [compound 512]
4	–	17.4	Cc1cccnc1C(NC(=O)c1cc2cccc(C)c2[nH]1)C1CCC1 (centres unmarked) [compound 513]
24.9	–	18.3	COc1ccc(C)c2[nH]c(C(=O)NC(CCC(=O)N3CCOCC3)c3ncccc3C)cc12 (centres unmarked) [compound 514]
25.1	–	18.5	COc1cccc2cc(C(=O)NC(CCC(=O)N3CCOCC3)c3ncccc3C)[nH]c12 (centres unmarked) [compound 515]
0.4	–	18.5	Cc1cc(C(=O)NC2CCC(N)C2)cnc1C(NC(=O)c1cc2cccc(C)c2[nH]1)C1CC1 (centres unmarked) [compound 516]
3.7	–	18.5	Cc1ccc(F)c2cc(C(=O)NC(C(=O)Nc3ccccc3)c3ccccn3)[nH]c12 (centres unmarked) [compound 517]
50	–	19.3	Cc1ccc(F)c2cc(C(=O)Nc3nnc(C4CCN(C)CC4)s3)[nH]c12 [compound 519]
12.3	–	19.8	Cc1cccc2cc(C(=O)NC3CC(=O)Nc4ccccc4C3)[nH]c12 (centres unmarked) [compound 520]
6.9	19.9	–	CCc1cccnc1C(NC(=O)c1cc2cccc(C)c2[nH]1)C1CC1 (centres unmarked) [compound 521]
10.6	–	20.6	Cc1cccc2cc(C(=O)NC3CCCCC3)[nH]c12 [compound 522]
8.8	–	20.8	Cc1cccnc1C(CCC(=O)Nc1cccnc1)NC(=O)c1cc2cccc(C)c2[nH]1 (centres unmarked) [compound 523]
1.5	–	20.9	Cc1ccc(F)c2cc(C(=O)Nc3cccc(-c4nnc(N)[nH]4)c3)[nH]c12 [compound 524]
12.6	–	20.9	COC(=O)CC(NC(=O)c1cc2cccc(C)c2[nH]1)c1ccc(Br)cc1 (centres unmarked) [compound 525]
1.9	22.6	–	Cc1cccc2cc(C(=O)Nc3ccc4ccccc4c3)[nH]c12 [compound 526]
14.7	–	24.2	COC(=O)CC(NC(=O)c1cc2cccc(C)c2[nH]1)c1ccc(C#N)cc1 (centres unmarked) [compound 527]
8.6	–	24.9	Cc1cc(C(=O)NC2CCN(C)CC2)c(C)nc1C(NC(=O)c1cc2cccc(C)c2[nH]1)C1CC1 (centres unmarked) [compound 529]
0.007	–	> 25	Cc1ccc(F)c2cc(C(=O)Nc3cccc(N4CCC(N5CCC(N)CC5)CC4)c3)[nH]c12 [compound 530]
0.2	> 25	–	Cc1cccc2cc(C(=O)Nc3cccc(N4CCC(NCCN)CC4)n3)[nH]c12 [compound 531]
0.2	–	> 25	Cc1ccc(F)c2cc(C(=O)Nc3cccc(-c4n[nH]c(=O)[nH]4)c3)[nH]c12 [compound 532]
0.4	–	> 25	Cc1cccc2cc(C(=O)Nc3ccc4ncncc4c3)[nH]c12 [compound 533]
0.6	–	> 25	Cc1cc(C(=O)NC2CNC2)cnc1C(NC(=O)c1cc2cccc(C)c2[nH]1)C1CC1 (centres unmarked) [compound 535]

IC50 (SETD2(1434-1711)) [µM]	IC50 (H3K36me3 in A549 cells; Homo sapiens) [µM]	IC50 (H3K36me3 in A549 cells) [µM]	Structure (SMILES)
0.8	–	> 25	Cc1ccc(F)c2cc(C(=O)Nc3ccc4ncc(CN(C)C)n4c3)[nH]c12 [compound 536]
0.9	> 25	–	CCN(CC)C1CCc2cc(NC(=O)c3cc4cccc(C)c4[nH]3)ccc2C1 (centres unmarked) [compound 537]
1	> 25	–	Cc1cccc2cc(C(=O)Nc3ccc4nc[nH]c(=O)c4c3)[nH]c12 [compound 538]
1.6	–	> 25	Cc1ccc(F)c2cc(C(=O)Nc3cccc(N4CCN(C)CC4c4ccccc4)c3)[nH]c12 (centres unmarked) [compound 539]
1.7	> 25	–	Cc1ccc(F)c2cc(C(=O)NCCc3ccccc3N3CCN(C)CC3)[nH]c12 [compound 540]
2	–	> 25	Cc1cccc2cc(C(=O)Nc3ccc4nc(CN5CCNCC5)ncc4c3)[nH]c12 [compound 541]
2.4	> 25	–	Cc1cc(CC(=O)O)cnc1C(NC(=O)c1cc2c(F)ccc(C)c2[nH]1)C1CC1 (centres unmarked) [compound 542]
2.6	–	> 25	Cc1cccc2cc(C(=O)NC3CCN(C(=O)CCCN)CC3C)[nH]c12 (centres unmarked) [compound 543]
2.9	–	> 25	Cc1cc(C(=O)O)cnc1C(NC(=O)c1cc2c(F)ccc(C)c2[nH]1)C1CC1 (centres unmarked) [compound 544]
3.1	–	> 25	Cc1ccc(F)c2cc(C(=O)Nc3cccc(-c4noc(=O)[nH]4)c3)[nH]c12 [compound 545]
3.9	> 25	–	Cc1cccc2cc(C(=O)Nc3ccc4nc(CN(C)C)cn4c3)[nH]c12 [compound 546]
4	–	> 25	Cc1ccc(F)c2cc(C(=O)Nc3cccc(N4CCOc5ccccc54)c3)[nH]c12 [compound 547]
5.1	–	> 25	Cc1ccc(F)c2cc(C(=O)Nc3ccn(C4CCN(C)CC4)n3)[nH]c12 [compound 548]
5.8	–	> 25	Cc1cccc2cc(C(=O)NCCc3ccccc3N3CCC(CCN(C)C)CC3)[nH]c12 [compound 549]
6.5	–	> 25	Cc1ccc(F)c2cc(C(=O)NC(C(=O)NCc3ccccc3)c3ccccn3)[nH]c12 (centres unmarked) [compound 550]
6.7	–	> 25	Cc1cc2ncc(CN(C)C)n2cc1NC(=O)c1cc2cccc(C)c2[nH]1 [compound 551]
7.7	–	> 25	Cc1cccc2cc(C(=O)NC3CC4CCC(C3)N4C(=O)CCCN)[nH]c12 (centres unmarked) [compound 552]
8.3	–	> 25	NCCC(=O)NC1CCC(NC(=O)c2cc3cccc(Br)c3[nH]2)CC1 (centres unmarked) [compound 553]
8.7	–	> 25	Cc1cccc2cc(C(=O)NCc3ccccc3N3CCN(C)CC3)[nH]c12 [compound 554]
9.2	–	> 25	Cc1ccc(F)c2cc(C(=O)Nc3cccc(N4CCN(C5CC5)c5ccccc54)c3)[nH]c12 [compound 555]
9.9	–	> 25	COC(=O)CC(NC(=O)c1cc2cccc(C)c2[nH]1)c1ccccc1F (centres unmarked) [compound 556]
> 10	> 25	–	Cc1ccc(F)c2cc(C(=O)Nc3nnc(C4CCN(C)CC4)o3)[nH]c12 [compound 557]

IC50 (SETD2(1434-1711)) [µM]	IC50 (H3K36me3 in A549 cells; Homo sapiens) [µM]	IC50 (H3K36me3 in A549 cells) [µM]	Structure (SMILES)
> 10	–	> 25	Cc1ccc(F)c2cc(C(=O)Nc3cc(C4CCN(C)CC4)n[nH]3)[nH]c12 [compound 558]
> 10	> 25	–	Cc1ccc(F)c2cc(C(=O)Nc3nnc(C4CCN(C)CC4)[nH]3)[nH]c12 [compound 559]
> 10	> 25	–	Cc1ccc(F)c2cc(C(=O)NC(C(=O)N3CCOCC3)c3ccccn3)[nH]c12 (centres unmarked) [compound 560]
> 10	> 25	–	Cc1ccc(F)c2cc(C(=O)Nc3cn(C4CCN(C)CC4)cn3)[nH]c12 [compound 561]
> 10	> 25	–	Cc1ccc(F)c2cc(C(=O)Nc3cnc(C4CCN(C)CC4)[nH]3)[nH]c12 [compound 562]
10.1	> 25	–	Cc1cccnc1C(NC(=O)c1cc2cccc(C)c2[nH]1)C1CCCC1 (centres unmarked) [compound 563]
10.9	> 25	–	Cc1cccc2cc(C(=O)NC(c3cccc4c3NC(=O)C4)C3CC3)[nH]c12 (centres unmarked) [compound 564]
11.6	> 25	–	Cc1ccc(F)c2cc(C(=O)Nc3cnn(C4CCC(N(C)C)CC4)c3)[nH]c12 (centres unmarked) [compound 565]
12.9	> 25	–	Cc1cccc2cc(C(=O)NCCc3ccccc3N3CCOC(CN(C)C)C3)[nH]c12 (centres unmarked) [compound 566]
13.6	> 25	–	Cc1cccnc1C(CCCN1CCNCC1)NC(=O)c1cc2cccc(C)c2[nH]1 (centres unmarked) [compound 567]
13.9	> 25	–	Cc1cccnc1C(NC(=O)c1cc2cccc(C)c2[nH]1)C(C)(C)C (centres unmarked) [compound 568]
14	> 25	–	Cc1ccc(F)c2cc(C(=O)Nc3cnn(C4CCN(C)CC4)c3)[nH]c12 [compound 569]
15	> 25	–	Cc1cccc2cc(C(=O)NCc3cccc4ccnn34)[nH]c12 [compound 570]
15.9	–	> 25	Cc1cccnc1C(CCC(=O)NC1CCOC1)NC(=O)c1cc2cccc(C)c2[nH]1 (centres unmarked) [compound 571]
16.6	> 25	–	Cc1cccnc1C(CCC(=O)N1CCNCC1)NC(=O)c1cc2cccc(C)c2[nH]1 (centres unmarked) [compound 572]
16.9	> 25	–	Cc1cc(C(=O)N[C@H]2CC[C@@H]2N)cnc1C(NC(=O)c1cc2cccc(C)c2[nH]1)C1CC1 (some centres unmarked) [compound 573]
17.3	> 25	–	Cc1cccnc1C(NC(=O)c1cc2cccc(CO)c2[nH]1)C1CC1 (centres unmarked) [compound 574]
> 18	> 25	–	Cc1cccc2cc(C(=O)NCc3ccccc3N3CCOCC3)[nH]c12 [compound 575]
18.6	> 25	–	Cc1ccc[n+]([O-])c1C(NC(=O)c1cc2cccc(C)c2[nH]1)C1CC1 (centres unmarked) [compound 576]
21.8	> 25	–	Cc1cc(C(=O)N2CCNCC2)ccc1C(NC(=O)c1cc2cccc(C)c2[nH]1)C1CC1 (centres unmarked) [compound 577]
